Results taken from ChEMBL document CHEMBL3988442, “University of Dundee, Small-Polar-MMV Screening Library” (2021).

How the values were obtained:
[1] = microbe, parasite or virus in culture; conditions: Mycobacterium tuberculosis, 72 h, read-out: pIC50 (converted)
[2] = microbe, parasite or virus in culture; conditions: Mycobacterium tuberculosis, 96 h, read-out: pIC50 (converted)

Row | Compound | IC50 [1] [µM] | IC50 [2] [µM]
1 | CCCc1nn(Cc2csc(C(C)C)n2)c(=O)o1 | 3.08 | 20.4
2 | Cc1ccc(C(=O)NCc2ccc3c(c2)OCCO3)o1 | 115 | 71.5
3 | CN(CC1(C)COC1)C(=O)c1cc(-c2cnn(C)c2)nc2ccccc12 | > 50.1 | > 50.1
4 | CN(C)c1cc(CNc2ccc(C#N)cn2)ccn1 | 205 | 453
5 | CC(C)NC(=O)NCC1(N2CCOCC2)CCSC1 (configuration not stated) | > 501 | > 501
6 | COc1ccc(-c2noc(CN3CCN(c4cnccn4)CC3)n2)cc1 | 47 | 33.8
7 | COc1ncccc1C(=O)NCCc1cccs1 | 347 | 285
8 | NCC1Cc2ccccc21 (configuration not stated) | 114 | 278
9 | NCc1ccncc1OCC(F)(F)F | > 501 | > 501
10 | COc1cc(N2CCNCC2)ccc1F | 281 | > 501
11 | CCOc1cc(Cl)ccc1CN | 159 | 121
12 | CCCS(=O)(=O)NCCOc1ccc(C#N)cc1 | 220 | 291
13 | COC(=O)c1ccc(COc2ccccc2CO)o1 | 230 | 250
14 | Cc1noc(CSc2ccc(C(=O)N3CCC3)cc2)n1 | > 501 | > 501
15 | CCc1ncc(C(=O)N2CCN(c3nccs3)CC2)s1 | 79.4 | > 501
16 | CCN1C(=O)C2(CCOCC2)c2cc(NC(=O)c3cnoc3C)ccc21 | > 50.1 | > 50.1
17 | CCC(C)(C)NC(=O)c1nn(-c2ccccc2)nc1C | 199 | 298
18 | O=S(=O)(CCN1CCCC(O)C1)c1ccc(Br)cc1 (configuration not stated) | 359 | 174
19 | CC(C)C(NS(=O)(=O)N1CCOCC1)c1ccccc1 (configuration not stated) | > 501 | > 501
20 | NCc1nc(-c2ccc(Cl)cc2)c[nH]1 | 128 | 264
21 | CCOc1ccc(-c2cc(N)[nH]n2)cc1 | 232 | > 501
22 | Cc1cccc2[nH]cc(CCN)c12 | 124 | 229

Row | Compound | IC50 [1] [µM] | IC50 [2] [µM]
23 | NCC(c1cccs1)N1CCCC1 (configuration not stated) | 156 | 494
24 | COCCNCC(=O)Nc1cccc(CSC)c1 | 374 | > 501
25 | Cc1ncsc1CCC(=O)N1CCCC1c1cccnc1 (configuration not stated) | > 50.1 | > 50.1
26 | CC(C)(C)C(=O)CCN1CCCCC1 | 204 | 290
27 | CN(Cc1ccc(Cl)s1)C(=O)C1CCN(C(N)=O)CC1 | > 501 | > 501
28 | COC(=O)COc1ccc(C(C)=O)cc1Cl | 264 | 354
29 | Cc1ccc2c(c1)nc1n2[C@@H](CNC(=O)c2cccnc2)COC1 | > 50.1 | > 50.1
30 | N[C@@H](CO)C(=O)N1CCC(Cc2ccc(F)cc2)CC1 | 195 | > 501
31 | Cc1ccc(C(C)C)c(OCC(O)CNCCO)c1 (configuration not stated) | 158 | 127
32 | O=C1NC2(CCCN(C(=O)CCn3cccn3)C2)Oc2ccccc21 (configuration not stated) | 39.4 | > 50.1
33 | Cc1ccc(C(N)CN2CCOCC2)cc1 (configuration not stated) | 448 | > 501
34 | CCCc1nc(N2CCCCC2)c2c(n1)c(C)nn2CC | 38.4 | 39.3
35 | CCOCCSc1nnc(Cc2ccccc2F)o1 | 33.5 | 27.5
36 | CC(=O)NCC(=O)N1C[C@@H]2CC[C@H](Oc3ccccc3Cl)[C@@H]2C1 | > 50.1 | > 50.1
37 | O=C(Nc1cccc(-n2cccn2)c1)N1CCSCC1 | > 501 | > 501
38 | CNc1cc(C)nc(NCc2cc(C)cc3c(C)c(C)[nH]c23)n1 | 23.6 | 35.8
39 | NCC(CO)Cc1ccsc1 (configuration not stated) | 122 | 176
40 | CCOc1ccc(Cl)cc1CCNS(=O)(=O)N(C)C | 245 | 282
41 | COc1ccc(CN2CCOC[C@H](OCCC(C)C)C2)cc1 | > 50.1 | > 50.1
42 | CN(CC(N)=O)Cc1ccccc1N1CCCC1 | 278 | > 501
43 | COc1cc(CNC(=O)Nc2ccnc(C)c2)ccn1 | 100 | 98.2
44 | NCc1ccc(NC(=O)c2ccccc2O)cc1 | 159 | > 501

Row | Compound | IC50 [1] [µM] | IC50 [2] [µM]
45 | NS(=O)(=O)NCC1CCN(c2cccc(Br)c2)C1 (configuration not stated) | 247 | 230
46 | CC1=NOC(C(=O)NCCc2nc3c(s2)CCCC3)C1 (configuration not stated) | 169 | 286
47 | CCC1c2ccsc2CCN1CC(=O)NC (configuration not stated) | > 501 | > 501
48 | COc1c(Cl)cc(NC(=O)C2COCCN2)cc1Cl (configuration not stated) | 200 | > 501
49 | CCOc1ccc(CC(=O)N2CCN(CC)CC2)cc1 | 371 | > 501
50 | CC(Cn1cccn1)NCc1csc(-c2ccc3c(c2)OCO3)n1 (configuration not stated) | 1.35 | > 50.1
51 | O=C(NCCO)c1cc2c(F)cc(Br)cc2[nH]1 | 257 | > 501
52 | COc1cc(Br)ccc1CCCNC(=O)c1c[nH]nn1 | 143 | 335
53 | COc1ccccc1NC(=O)c1ccc(C)nc1 | > 501 | > 501
54 | CC(C)Oc1cccc(C(O)CNC(=O)NCc2cccs2)c1 (configuration not stated) | > 50.1 | 30.8
55 | CN(C(=O)CN1CCCC1Cc1ccccc1)c1ccccc1 (configuration not stated) | 33 | > 50.1
56 | CSCCC1c2nc[nH]c2CCN1Cc1[nH]c2ccc(F)cc2c1C (configuration not stated) | > 50.1 | > 50.1
57 | COc1cc(C(=O)NC[C@@H](O)c2ccc(C)cc2)on1 | 488 | > 501
58 | NC(=O)CN1CCC(COCc2ccccc2)C1 (configuration not stated) | 268 | 292
59 | NCCc1ccc(OCC(F)(F)F)nc1 | 111 | 211
60 | COCCc1noc(CNC2CCCC(C)(C)C2)n1 (configuration not stated) | 2.66 | > 50.1
61 | COc1ccccc1C(C)NC(=O)Cn1cc(C)cn1 (configuration not stated) | 226 | > 501
62 | Clc1ccc(CSc2cnn[nH]2)s1 | 236 | 267
63 | O=S(=O)(CCNc1cncc(Cl)n1)N1CCSCC1 | 252 | 215
64 | COc1ccc(CCN2CCCNCC2)cc1 | 73.3 | 159
65 | OCc1cnc2c(F)cccc2c1 | > 501 | > 501
66 | CCCc1cncnc1N1CCC(NCc2cc3ccccc3[nH]2)CC1 | 18.3 | 18.3

Row | Compound | IC50 [1] [µM] | IC50 [2] [µM]
67 | CC(C)(C)c1cnc(CN2CCOCC2C(N)=O)o1 (configuration not stated) | 158 | > 501
68 | OCCNCCNCc1ccc(-c2ccccc2F)o1 | 211 | 40.9
69 | CCCN(C)S(=O)(=O)NC(C)c1ccc(OC)c(F)c1 (configuration not stated) | 153 | 163
70 | CC(=O)N1CCCC1c1cccc(Cc2ccccc2F)n1 (configuration not stated) | 29.2 | 39
71 | O=C1C=CC(=O)N1Cc1ccc(Cl)cc1 | 129 | 174
72 | Cc1cc(C(=O)N2CCN(Cc3ccsc3)CC2)[nH]n1 | 90.5 | 156
73 | COCc1nn(Cc2ccccc2Cl)c(=O)o1 | 35.9 | 393
74 | COc1ccc(CN2CCCNCC2)cc1 | 258 | 163
75 | CC(CO)(CO)NCc1cnn(-c2ccc(Br)cc2)c1 | 238 | 393
76 | CCCC(=O)N(CCCN1CCOCC1)c1nc2c(C)c(C)ccc2s1 | > 50.1 | > 50.1
77 | OC(Cn1nnc(-c2ccsc2)n1)CC(F)(F)F (configuration not stated) | 56.5 | 39.2
78 | Cc1nnc(SCCN)s1 | > 501 | > 501
79 | CCC(CO)NC(=O)Cc1ccc(NC(=O)CC2=CCCCC2)cc1 (configuration not stated) | > 50.1 | > 50.1
80 | CCNC(=O)c1cc(-c2ccc(F)cc2)n[nH]1 | 209 | > 501
81 | COc1coc(CN2CCCC(CCc3ccc(F)cc3)C2)cc1=O (configuration not stated) | > 50.1 | 23.1
82 | Cc1nc(CNC(=O)c2cc(C3CC3)[nH]n2)cs1 | > 501 | > 501
83 | NCC1CN(c2nc3cc(Cl)ccc3o2)CCO1 (configuration not stated) | 75.2 | 271
84 | CC(C)CCNC(=O)Cn1c(=O)oc2ccccc21 | 401 | 274
85 | CCC(N)C(=O)Nc1ccc2c(c1)C(=O)CCC2 (configuration not stated) | 163 | 137
86 | CCC(CNS(=O)(=O)N(C)CC)c1ccccc1 (configuration not stated) | 249 | > 501
87 | CCOCC(=O)NCC(O)c1cccc(C(F)(F)F)c1 (configuration not stated) | > 501 | > 501
88 | OCCC1CCN(Cc2ccccc2)C1 (configuration not stated) | > 501 | > 501

Row | Compound | IC50 [1] [µM] | IC50 [2] [µM]
89 | Cc1ccc(-n2nnnc2NCC2CCCO2)cc1 (configuration not stated) | 113 | 119
90 | CC(C)CC(C)Oc1cc(CNS(N)(=O)=O)ccn1 (configuration not stated) | 116 | 372
91 | N[C@@H]1C[C@H]1c1c(F)cccc1F | > 501 | > 501
92 | COC(=O)N1CCN(c2ccccn2)CC1 | > 501 | 168
93 | N#Cc1c(F)cccc1NCCSCCCO | 102 | 67.1
94 | CCNCc1ccc2c(c1)OCO2 | 280 | > 501
95 | CN(CCc1nc(-c2cccc(Cl)c2)no1)CCn1cccn1 | 4.75 | 41.6
96 | CN(C)c1cc(Cn2cnc3sccc3c2=O)ccn1 | > 501 | > 501
97 | O=C(NCCSC1CCCC1)c1ccccn1 | 173 | > 501
98 | Cc1ccc(OCCSCCn2nc3ccccn3c2=O)cc1 | > 50.1 | > 50.1
99 | CC(NC(=O)CNc1cc(F)cc(Br)c1)C(=O)N(C)C (configuration not stated) | 289 | > 501
100 | COCc1nn(Cc2csc(C(C)C)n2)c(=O)o1 | 14.9 | 22.5
101 | N[C@@H]1C[C@H]1c1ccc2c(c1)OCCO2 | > 501 | 196
102 | CC(C)Oc1ccc(S(=O)(=O)N(C)C(C)CN)cc1 (configuration not stated) | 162 | 273
103 | COCCN(C)CC1CCCN1S(=O)(=O)c1cccc(F)c1F (configuration not stated) | 15 | > 50.1
104 | COc1ccc(CN2CCCC(Nc3cccc(F)c3)C2)cc1O (configuration not stated) | 11 | 16.5
105 | CCOCCN(C)C(c1cccnc1)c1ccc(F)cc1F (configuration not stated) | > 50.1 | > 50.1
106 | Cc1nn(CCO)c(NCc2cccc(F)c2)c1C | > 501 | > 501
